Here are results for one compound from article PMC8458504, “Targeting the actin nucleation promoting factor WASp provides a therapeutic approach for hematopoietic malignancies” (Nature Communications, 2021).

As usually defined, the Kd is the concentration at which binding is half-saturated.

This assay addresses T1, YFP-WASp wt (Wiskott–Aldrich Syndrome protein) (Homo sapiens, UniProt P42768).
T1 construct: gene WAS; full-length wild type, YFP-tagged, transiently expressed in HEK 293T (endogenous WIP present); diluted whole-cell lysate, not purified
T1 sequence (P42768 2-502): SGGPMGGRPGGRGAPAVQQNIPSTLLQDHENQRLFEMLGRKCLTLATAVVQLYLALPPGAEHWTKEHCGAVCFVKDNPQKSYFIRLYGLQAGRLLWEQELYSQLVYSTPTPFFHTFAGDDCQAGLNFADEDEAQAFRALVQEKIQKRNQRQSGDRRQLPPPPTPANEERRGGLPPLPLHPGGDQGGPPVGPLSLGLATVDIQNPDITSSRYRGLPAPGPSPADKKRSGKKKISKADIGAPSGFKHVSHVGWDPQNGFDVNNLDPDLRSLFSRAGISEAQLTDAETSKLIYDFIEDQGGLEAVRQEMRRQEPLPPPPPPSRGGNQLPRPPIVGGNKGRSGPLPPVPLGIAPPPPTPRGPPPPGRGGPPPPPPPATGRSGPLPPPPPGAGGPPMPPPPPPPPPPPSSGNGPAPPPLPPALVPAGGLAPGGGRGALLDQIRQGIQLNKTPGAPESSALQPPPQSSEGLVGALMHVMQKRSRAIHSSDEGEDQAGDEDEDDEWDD
In words: microscale thermophoresis in diluted HEK […] lysate. It counts as binding.

`COc1ccc(CN2C(=O)N(CC(C)C)C3(CCN(C4Cc5ccccc5C4)CC3)C2=O)cc1` [SMC #13, 8-(2,3-dihydro-1H-inden-2-yl)-1-isobutyl-3-(4-methoxybenzyl)-1,3,8-triazaspiro[4.5]decane-2,4-dione] gave a Kd of 30.8 ± 13.6 nM.
